Assay results taken from patent US20120129843A1, “PYRIDYL-THIAZOLYL INHIBITORS OF PRO-MATRIX METALLOPROTEINASE ACTIVATION” (priority 2010, published 2012).
Where a name gives a salt, the structure may show the parent alone.

Key:
[1] = target: T1, proMMP13(1-268) (SEQ ID NO:7) (Homo sapiens, UniProt P45452); experiment: ThermoFluor binding assay with proMMP13(1-268)
T1 construct: 6xHis (C); made in house; host or cells: HEK293 (transient, secreted)
Procedure: The ThermoFluor® (TF) assay is a 384-well plate-based binding assay that measures thermal stability of proteins (Biomol Screen 2001, 6, 429-40; Biochemistry 2005, 44, 5258-66). The experiments were carried out using instruments available from Johnson & Johnson Pharmaceutical Research & Development, LLC. TF dye used in all experiments was […] (1,8-ANS) (Invitrogen: A-47).
Compounds were arranged in a pre-dispensed plate (Greiner Bio-one: 781280), wherein compounds were serially diluted in 100% DMSO across 11 columns within a series. Columns 12 and 24 were used as DMSO reference and contained no compound. For multiple compound concentration-response experiments, the compound aliquots ([…]) were robotically predispensed directly into black 384-well polypropylene PCR microplates (Abgene: TF-0384/k) using a Cartesian Hummingbird liquid handler (DigiLab, Holliston, Mass.). Following compound dispense, protein and dye solutions were added to achieve the final assay volume of 3 μL. The assay solutions were overlayed with 1 μL of silicone oil (Fluka, type DC 200: 85411) to prevent evaporation.
Assay plates were robotically loaded onto a thermostatically controlled PCR-type thermal block and then heated from 40 to 90° C. at a ramp-rate of 1° C./min for all experiments. Fluorescence was measured by continuous illumination with UV light (Hamamatsu LC6) supplied via fiber optics and filtered through a band-pass filter (380-400 nm; >60D cutoff). Fluorescence emission of the entire 384-well plate was detected by measuring light intensity using a CCD camera (Sensys, Roper Scientific) filtered to detect 500±25 nm, resulting in simultaneous and independent readings of all 384 wells. A single image with 20-sec exposure time was collected at each temperature, and the sum of the pixel intensity in a given area of the assay plate was recorded vs temperature and fit to standard equations to yield the Tm (J Biomol Screen 2001, 6, 429-40).
Thermodynamic parameters necessary for fitting compound binding for each proMMP were estimated by differential scanning calorimetry (DSC) and from ThermoFluor® data. The heat capacity of unfolding for each protein was estimated from the molecular weight and from ThermoFluor® dosing data.
ThermoFluor® with proMMP13(1-268) (SEQ ID NO: 7)
The proMMP13(1-268) (SEQ ID NO:7) protein sample preparations included a desalting buffer exchange step via a PD-10 gravity column (GE Healthcare). The desalting buffer exchange was performed prior to diluting the protein to the final assay concentration of 3.5 μM. The concentration of proMMP13(1-268) (SEQ ID NO:7) was estimated spectrophotometrically based on a calculated extinction coefficient of ε280=37000 M^−1cm^−1, a calculated molecular weight of 30.8 kDa, and calculated pI of 5.33. ThermoFluor® reference conditions were defined as follows: 100 μg/mL proMMP13(1-268) (SEQ ID NO:7), 25 μM 1,8-ANS, pH 7.0 Buffer (50 mM HEPES pH 7.0, 100 mM NaCl, 0.001% Tween-20, 2.5 mM MgCl2, 300 μM CaCl2). The thermodynamic parameters for proMMP13(1-268) (SEQ ID NO:7) are as follows: Tm (° C.)=67 (+/−0.1), ΔUH(Tm) (cal mol^−1)=107000(+/−5000), ΔUS(Tm) (cal mol^−1 K^−1)=318, ΔUCp (cal mol^−1 K^−1)=2600.

[2] = target: T2, proMMP9(20-445;ΔFnII) (SEQ ID NO:6) (Homo sapiens, UniProt P14780, DEL216-390); experiment: ThermoFluor binding assay with proMMP9(20-445;ΔFnII)
T2 construct: start methionine (N); made in house; host or cells: E. coli BL21(DE3) RIL
T2 sequence (P14780 with tags, fused parts or gaps DEL216-390): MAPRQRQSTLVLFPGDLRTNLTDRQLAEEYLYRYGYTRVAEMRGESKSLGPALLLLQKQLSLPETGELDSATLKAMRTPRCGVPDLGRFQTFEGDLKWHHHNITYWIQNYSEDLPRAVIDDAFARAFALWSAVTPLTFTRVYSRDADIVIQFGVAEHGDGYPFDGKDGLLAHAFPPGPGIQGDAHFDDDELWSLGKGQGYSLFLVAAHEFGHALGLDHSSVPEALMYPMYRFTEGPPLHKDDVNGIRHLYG
Summary of the method: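 Thermal-shift binding using 2.8 μM proMMP9(20-445;ΔFnII) with 50 μM 1,8-ANS in 50 mM HEPES pH 7.0, 100 mM NaCl, 0.001% Tween-20, 2.5 mM MgCl2, 300 μM CaCl2. Compound serially diluted; heated 40–90 °C at 1 °C/min, fluorescence 500 nm. Tm shifts fitted using DSC/ThermoFluor-derived thermodynamic parameters.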

[3] = target: T3, full-length proMMP9(1-707) (SEQ ID NO:1), activation by catalytic MMP3 (Homo sapiens, UniProt P14780, R574P); experiment: proMMP9/MMP3 P126 Activation Assay; assay type: biochemical
T3 construct: made in house; host or cells: HEK293 (proMMP9, secreted); E. coli (MMP3)
Procedure: proMMP9/MMP3 P126 Activation Assay
The reaction volume was 50 μL. […] Reactivity of residual MMP3 towards P-126 substrate was minimal under these conditions.

[4] = target: T4, proMMP9(67-444;ΔFnII) (SEQ ID NO:5) (Homo sapiens, UniProt P14780, DEL216-390); experiment: ThermoFluor binding assay with proMMP9(67-444;ΔFnII)
T4 construct: start methionine (N); made in house; host or cells: E. coli BL21(DE3) RIL
T4 sequence (P14780 with tags, fused parts or gaps DEL216-390): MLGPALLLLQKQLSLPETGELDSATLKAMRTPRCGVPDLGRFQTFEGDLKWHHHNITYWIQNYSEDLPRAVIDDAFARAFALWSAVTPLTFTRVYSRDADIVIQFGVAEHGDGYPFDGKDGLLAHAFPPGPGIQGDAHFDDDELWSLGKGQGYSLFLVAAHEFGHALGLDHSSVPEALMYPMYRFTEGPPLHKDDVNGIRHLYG
Summary of the method: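 Thermal shift with 3.5 μM desalted proMMP9(67-444;ΔFnII) and 50 μM 1,8-ANS in 50 mM HEPES pH 7.0, 100 mM NaCl, 0.001% Tween-20, 2.5 mM MgCl2, 300 μM CaCl2; compounds serially diluted. Heated 40–90 °C at 1 °C/min, fluorescence at 500 nm; Tm fit, binding modelled using DSC-derived thermodynamic parameters.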

[5] = target: T5, proMMP13(1-268) (SEQ ID NO:7), activation by plasmin (Homo sapiens, UniProt P45452); experiment: ProMMP13/Plasmin P126 Activation Assay; assay type: biochemical
T5 construct: 6xHis (C); made in house; host or cells: HEK293 (proMMP13, secreted)
Procedure: ProMMP13/Plasmin P126 Activation Assay
On the day of assay, proMMP13(1-268) (SEQ ID NO:7) purified from HEK293 cells and plasmin were diluted to 160 nM and 320 nM, respectively, in assay buffer. The reaction volume was 50 μL. […] The plate was sealed and incubated for 40 min at 37° C. […] Plasmin was not reactive towards P-126 substrate under these conditions.

[6] = target: T6, full-length proMMP9(1-707) (SEQ ID NO:1) from COS-1 cells, activation by catalytic MMP3 (Homo sapiens, UniProt P14780, R574P); experiment: ProMMP9/MMP3 DQ Gelatin Activation Assay; assay type: biochemical; conditions: read-out: ProMMP9/MMP3 DQ gel Activation Assay, IC50
T6 construct: made in house; host or cells: COS-1 (proMMP9, secreted); E. coli (MMP3)
Text: ProMMP9/MMP3 DQ Gelatin Activation Assay

T3 sequence (P14780 20-707 R574P): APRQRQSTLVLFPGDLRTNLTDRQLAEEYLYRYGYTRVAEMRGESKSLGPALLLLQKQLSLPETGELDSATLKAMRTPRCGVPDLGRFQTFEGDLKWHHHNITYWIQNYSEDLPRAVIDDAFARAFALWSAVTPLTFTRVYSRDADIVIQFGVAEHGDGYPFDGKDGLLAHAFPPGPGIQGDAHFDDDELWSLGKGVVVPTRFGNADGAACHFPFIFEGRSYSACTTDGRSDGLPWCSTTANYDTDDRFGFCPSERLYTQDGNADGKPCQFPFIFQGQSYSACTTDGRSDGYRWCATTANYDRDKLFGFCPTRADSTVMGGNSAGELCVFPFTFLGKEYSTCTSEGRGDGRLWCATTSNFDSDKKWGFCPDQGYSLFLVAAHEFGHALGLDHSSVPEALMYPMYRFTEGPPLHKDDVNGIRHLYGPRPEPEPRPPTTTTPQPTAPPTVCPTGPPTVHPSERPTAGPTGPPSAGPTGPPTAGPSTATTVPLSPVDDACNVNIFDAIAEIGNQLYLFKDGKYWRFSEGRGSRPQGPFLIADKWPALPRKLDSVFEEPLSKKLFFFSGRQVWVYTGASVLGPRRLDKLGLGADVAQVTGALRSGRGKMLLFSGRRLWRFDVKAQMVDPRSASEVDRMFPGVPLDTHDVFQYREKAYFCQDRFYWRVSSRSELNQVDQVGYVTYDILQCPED
T6 sequence (P14780 20-707 R574P): as above

Row | Kd [1] | Kd [2] | IC50 [3] | Kd [4] | IC50 [5] | IC50 [6] | Structure (SMILES)
1 | 0.93 µM | 0.21 µM | 0.5 µM | 1.9 µM | – | – | CC(C)Oc1ccc(C(N)=O)cc1Nc1nc(-c2ccccn2)cs1 [Example 14, 4-Isopropoxy-3-(4-pyridin-2-yl-thiazol-2-ylamino)-benzamide]
2 | 0.73 µM | 0.25 µM | 0.28 µM | 0.47 µM | – | – | CC(C)Oc1ccc(C(N)=O)cc1Nc1nc(-c2ccncc2)cs1 [Example 15, 4-Isopropoxy-3-(4-pyridin-4-yl-thiazol-2-ylamino)-benzamide.HBr]
3 | 1.5 µM | 3.6 µM | 4.3 µM | 5.7 µM | – | – | CC(C)Oc1ccc(C(=O)O)cc1Nc1nc(-c2cccnc2)cs1 [Example 17, 4-Isopropoxy-3-(4-pyridin-3-yl-thiazol-2-ylamino)-benzoic acid.TFA]
4 | 3.3 µM | 26 µM | 0.67 µM | 0.66 µM | – | – | CCOc1ccc(-c2ncco2)cc1Nc1nc(-c2cccnc2)cs1 [Example 18, (2-Ethoxy-5-oxazol-2-yl-phenyl)-(4-pyridin-3-yl-thiazol-2-yl)-amine.HBr]
5 | 6.2 µM | 27 µM | ~4 µM | 14 µM | – | – | Cc1cc(C)c(-c2csc(Nc3cc(C(N)=O)ccc3OC(C)C)n2)c(C)n1 [Example 19, 4-Isopropoxy-3-[4-(2,4,6-trimethyl-pyridin-3-yl)-thiazol-2-ylamino]-benzamide.TFA]
6 | 0.23 µM | 0.34 µM | 0.64 µM | 3.3 µM | – | – | CC(C)Oc1ccc(C(N)=O)cc1Nc1nc(-c2ccc(Br)nc2)cs1 [Example 20, 4-Isopropoxy-3-[4-(6-bromo-pyridin-3-yl)-thiazol-2-ylamino]-benzamide.TFA]
7 | 1.4 µM | 0.21 µM | 0.6 µM | 4.1 µM | – | – | CC(C)Oc1ccc(C(N)=O)cc1Nc1nc(-c2ccnc(Cl)c2)cs1 [Example 21, 3-[4-(2-Chloro-pyridin-4-yl)-thiazol-2-ylamino]-4-isopropoxy-benzamide.TFA]
8 | 2.9 µM | 1.3 µM | 4.6 µM | 5.7 µM | – | – | CC(C)Oc1ccc(C(N)=O)cc1Nc1nc(-c2cncc(Br)c2)cs1 [Example 22, 3-[4-(5-Bromo-pyridin-3-yl)-thiazol-2-ylamino]-4-isopropoxy-benzamide.TFA]
9 | 12 µM | 11 µM | ~14 µM | 18 µM | – | – | CC(C)Oc1ccc(C(N)=O)cc1Nc1nc(-c2cnccc2C(C)C)cs1 [Example 23, 4-Isopropoxy-3-[4-(4-isopropyl-pyridin-3-yl)-thiazol-2-ylamino]-benzamide.TFA]
10 | 3.7 µM | 2.2 µM | ~3 µM | > 95 µM | – | – | Cc1nc(C(F)(F)F)ccc1-c1csc(Nc2cc(C(N)=O)ccc2OC(C)C)n1 [Example 24, 4-Isopropoxy-3-[4-(2-methyl-6-trifluoromethyl-pyridin-3-yl)-thiazol-2-ylamino]-benzamide.TFA]
11 | 1.8 µM | 0.17 µM | 0.46 µM | 2 µM | – | – | COc1ccc(-c2csc(Nc3cc(C(N)=O)ccc3OC(C)C)n2)cn1 [Example 25, 4-Isopropoxy-3-[4-(6-methoxy-pyridin-3-yl)-thiazol-2-ylamino]-benzamide.TFA]
12 | 0.25 µM | 0.32 µM | 0.68 µM | 3.3 µM | – | – | CC(C)Oc1ccc(C(N)=O)cc1Nc1nc(-c2ccc(Cl)nc2)cs1 [Example 26, 3-[4-(6-Chloro-pyridin-3-yl)-thiazol-2-ylamino]-4-isopropoxy-benzamide.TFA]
13 | 0.28 µM | 0.039 µM | 0.15 µM | 0.38 µM | 0.9 µM | – | CC(C)Oc1ccc(C(N)=O)cc1Nc1nc(-c2ccc(N3CCN(C)CC3)nc2)cs1 [Example 27, 4-Isopropoxy-3-{4-[6-(4-methyl-piperazin-1-yl)-pyridin-3-yl]-thiazol-2-ylamino}-benzamide.TFA]
14 | 78 µM | > 95 µM | – | > 95 µM | – | 5.5 µM | COc1ccc([N+](=O)[O-])cc1Nc1nc(-c2cccnc2)cs1 [Example 60, (2-Methoxy-5-nitro-phenyl)-(4-pyridin-3-yl-thiazol-2-yl)-amine]
